The subject of data set [1] is tumor derived from Colon26 cells, mouse colon cancer model [Colon26細胞由来の腫瘍, マウス結腸癌モデル]. The data set is described as follows: Tumor growth inhibition in mouse colon cancer model (Colon26, BALB/c). Conditions: 50 mg/kg i.v., sodium salt. The data set is classed as in vivo.
The nature of data set [2]: Body weight and organ damage in mouse colon cancer model. The data set is classed as in vivo. The following applies: end of test, 50 mg/kg i.v.; sodium salt.

For the compound `Nc1nn(-c2cncc(-n3ccc(CC(=O)O)c3)n2)c2cc(Cl)ccc12` [参考例6, 2-{1-[6-(3-アミノ-6-クロロ-1H-インダゾリル)ピラジン-2-イル]ピロール-3-イル}酢酸], the estimated tumor volume entry in data set [1] (from day 5 after start of dosing, compared with control group (Fig. 1)) is reported as “対照群に比較して小さくなった”. The tumor growth rate in data set [1] (day 7 after start of dosing, n=10, relative to estimated tumor volume on day 1, control 1068±197%, P=0.02 (Fig. 2)) is 493±81%. In addition, the tumor weight in data set [1] (day 15 after start of dosing, n=10, control 2.11±0.25 g, P=0.20) is 1.57 ± 0.31 g. The “reduction of tumor weight” value in data set [1] (day 15 after start of dosing, vs control group, P=0.20) amounted to 25%. Also, in data set [2], the “body weight difference from control group” value is “体重の差はなく” and the organ damage entry was “各臓器の障害は何ら認められなかった”.

The values above are taken from JP2008179567A, “ピラジン誘導体を有効成分とする抗がん剤” (Toray Industries Inc, priority 2007, dated 2008).
